# Data from US20200108031A1, “Treating Tumors Using TTFields Combined with ABT-751” (Novocure GmbH, priority 2018, published 2020).
# Experiments:
# A172 cells [1] = test: Growth of A172 cells, TTFields alone and in combination with ABT-751; format: cell-based; settings: ABT-751 1 μM, 8 hours, TTFields 200 kHz, 3.3 V/cm, 72 hours (continuous or 3×16 hours), FIG. 1
# Procedure: (§1) For the first two bars, both without (−) and with (+) ABT-751, TTFields were not applied. For the next two bars, both without (−) and with (+) ABT-751, TTFields were applied for three 16 hour intervals, and each of those 16 hour intervals was followed by an 8 hour interval during which TTFields were not applied. For the next two bars, both without (−) and with (+) ABT-751, TTFields were applied continuously for 72 hours. […] Data are mean±SEM; n≥5; Statistical significance was determined by one-way ANOVA; Tukey-corrected for multiple comparisons; *p<0.05, **p<0.01, ***p<0.001, ****p<0.0001. In all the experiments described herein, TTFields (200 kHz; 3.3V/cm) were applied using an Inovitro™ system.
# A172 cells [2] = test: Colony formation (clonogenic survival) of A172 cells, TTFields alone and in combination with ABT-751; format: cell-based; settings: ABT-751 1 μM, 8 hours, TTFields 200 kHz, 3.3 V/cm, 72 hours (continuous or 3×16 hours), FIG. 2
# Procedure: as §1
smiles,measurement,setting,value
"COc1ccc(S(=O)(=O)Nc2cccnc2Nc2ccc(O)cc2)cc1 [ABT-751, N-[2-(4-hydroxyanilino)pyridin-3-yl]-4-methoxybenzenesulfonamide]",synergy with TTFields on cell growth,A172 cells [1],synergizes
same,synergy with TTFields on colony formation,A172 cells [2],synergizes
